Tests used:
CDK2 = molecular target: T1, CDK2 (Homo sapiens, UniProt P24941); experiment: CDK protein degradation activity (Western blotting), CDK2; assay type: cell-based; details: MDA-MB-231 cells, 16 hours, Western blot
T1 construct: endogenous in cells; host or cells: MDA-MB-231
Summary of the method: (§1)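 CDK2 and CDK9 protein levels measured by Western blot with densitometry, using tubulin as loading reference. Cells were MDA-MB-231, exposed for 16 h to 100 nM, 1 μM or 10 μM compound or to DMSO.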

CDK9 = molecular target: T2, CDK9 (Homo sapiens, UniProt P50750); experiment: CDK protein degradation activity (Western blotting), CDK9; assay type: cell-based; details: MDA-MB-231 cells, 16 hours, Western blot
T2 construct: endogenous in cells; host or cells: MDA-MB-231
T2 sequence (P50750 whole entry): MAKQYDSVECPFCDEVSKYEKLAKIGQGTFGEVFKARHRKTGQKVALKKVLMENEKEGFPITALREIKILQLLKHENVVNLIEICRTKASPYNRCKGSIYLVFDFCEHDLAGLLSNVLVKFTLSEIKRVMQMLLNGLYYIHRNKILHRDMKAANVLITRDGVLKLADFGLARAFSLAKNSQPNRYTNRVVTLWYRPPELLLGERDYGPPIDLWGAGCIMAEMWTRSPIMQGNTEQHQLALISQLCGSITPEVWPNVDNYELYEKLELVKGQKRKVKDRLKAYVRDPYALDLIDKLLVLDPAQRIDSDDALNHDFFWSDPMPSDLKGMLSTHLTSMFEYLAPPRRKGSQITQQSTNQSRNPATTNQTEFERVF
Summary of the method: as §1

Structure (SMILES) | Enzyme degradation CDK2 (% remaining) @ 0.1 μM (CDK2) | Enzyme degradation CDK2 (% remaining) @ 1 μM (CDK2) | Enzyme degradation CDK2 (% remaining) @ 10 μM (CDK2) | Enzyme degradation CDK9 (% remaining) @ 0.1 μM (CDK9) | Enzyme degradation CDK9 (% remaining) @ 1 μM (CDK9) | Enzyme degradation CDK9 (% remaining) @ 10 μM (CDK9)
O=C1CC[C@@H](c2ccc(OCC(=O)N3CCC(OCCN4CCN(c5ccc(Nc6ncnc7c6ncn7C6CC(NC(=O)Cc7ccccc7)C6)cc5)CC4)CC3)cc2)C(=O)N1 (some centres unmarked) [Compound 250, N-((1s,3s)-3-(6-((4-(4-(2-((1-(2-(4-(2,6-dioxopiperidin-3-yl)phenoxy)acetyl)piperidin-4-yl)oxy)ethyl)piperazin-1-yl)phenyl)amino)-9H-purin-9-yl)cyclobutyl)-2-phenylacetamide] | 60% | 40% | 30% | 40% | 10% | 0%
O=C1CC[C@@H](c2cccc(OCC(=O)N3CCC(OCCN4CCN(c5ccc(Nc6ncnc7c6ncn7C6CC(NC(=O)Cc7ccccc7)C6)cc5)CC4)CC3)c2)C(=O)N1 (some centres unmarked) [Compound 251, N-((1s,3s)-3-(6-((4-(4-(2-((1-(2-(3-(2,6-dioxopiperidin-3-yl)phenoxy)acetyl)piperidin-4-yl)oxy)ethyl)piperazin-1-yl)phenyl)amino)-9H-purin-9-yl)cyclobutyl)-2-phenylacetamide] | 0/0/0% | 0/0/0% | 0/0/0% | 30% | 0% | 0%
O=C1CCC(N2C(=O)c3ccc(N4CCC(OCCN5CCN(c6ccc(Nc7ncnc8c7ncn8[C@H]7C[C@@H](NC(=O)Cc8ccccc8)C7)cc6)CC5)CC4)cc3C2=O)C(=O)N1 (some centres unmarked) [Compound 252, N-((1s,3s)-3-(6-((4-(4-(2-((1-(2-(2,6-dioxopiperidin-3-yl)-1,3-dioxoisoindolin-5-yl)piperidin-4-yl)oxy)ethyl)piperazin-1-yl)phenyl)amino)-9H-purin-9-yl)cyclobutyl)-2-phenylacetamide] | 30% | 30% | 50% | 60/60/60% | 60/60/60% | 60/60/60%
COc1ccc(C(=O)N2CCC(CCCN3CCN(c4ccc(Nc5ncnc6c5ncn6[C@H]5C[C@@H](NC(=O)Cc6ccccc6)C5)cc4)CC3)CC2)cc1N1CCC(=O)NC1=O [Compound 257, N-((1s,3s)-3-(6-((4-(4-(3-(1-(3-(2,4-dioxotetrahydropyrimidin-1(2H)-yl)-4-methoxybenzoyl)piperidin-4-yl)propyl)piperazin-1-yl)phenyl)amino)-9H-purin-9-yl)cyclobutyl)-2-phenylacetamide] | 0% | 20% | 20% | 80% | 50% | 50%
O=C1CC[C@@H](c2ccc(OCC(=O)N3CCC(CCCN4CCN(c5ccc(Nc6ncnc7c6ncn7[C@H]6C[C@@H](NC(=O)Cc7ccccc7)C6)cc5)CC4)CC3)cc2)C(=O)N1 [Compound 258, N-((1s,3s)-3-(6-((4-(4-(3-(1-(2-(4-(2,6-dioxopiperidin-3-yl)phenoxy)acetyl)piperidin-4-yl)propyl)piperazin-1-yl)phenyl)amino)-9H-purin-9-yl)cyclobutyl)-2-phenylacetamide] | 20/20/20% | 20/20/20% | 20/20/20% | 20% | 0% | 0%
O=C1CCC(N2C(=O)c3cccc(N4CCC(OCCN5CCN(c6ccc(Nc7ncnc8c7ncn8[C@H]7C[C@@H](NC(=O)Cc8ccccc8)C7)cc6)CC5)CC4)c3C2=O)C(=O)N1 (some centres unmarked) [Compound 260, N-((1s,3s)-3-(6-((4-(4-(2-((1-(2-(2,6-dioxopiperidin-3-yl)-1,3-dioxoisoindolin-4-yl)piperidin-4-yl)oxy)ethyl)piperazin-1-yl)phenyl)amino)-9H-purin-9-yl)cyclobutyl)-2-phenylacetamide] | 20/20/20% | 20/20/20% | 20/20/20% | 60/60/60% | 60/60/60% | 60/60/60%
O=C1CC[C@H](N2C(=O)c3cccc(NCC(=O)N4CCC5(CC(N6CCN(c7ccc(Nc8ncnc9c8ncn9C8CC(NC(=O)Cc9ccccc9)C8)cc7)CC6)C5)C4)c3C2=O)C(=O)N1 (some centres unmarked) [Compound 263, N-((1s,3s)-3-(6-((4-(4-(6-((2-(2,6-dioxopiperidin-3-yl)-1,3-dioxoisoindolin-4-yl)glycyl)-6-azaspiro[3.4]octan-2-yl)piperazin-1-yl)phenyl)amino)-9H-purin-9-yl)cyclobutyl)-2-phenylacetamide] | 50% | 40% | 40% | 20% | 0% | 0%

Now from value to compound:

Enzyme degradation CDK2 (% remaining) @ 0.1 μM (CDK2) | Enzyme degradation CDK2 (% remaining) @ 1 μM (CDK2) | Enzyme degradation CDK2 (% remaining) @ 10 μM (CDK2) | Enzyme degradation CDK9 (% remaining) @ 0.1 μM (CDK9) | Enzyme degradation CDK9 (% remaining) @ 1 μM (CDK9) | Enzyme degradation CDK9 (% remaining) @ 10 μM (CDK9) | Structure (SMILES)
20/—/20% | – | 20/—/20% | 0/0/0% | 0/0/0% | 0/0/0% | O=C1CC[C@H](N2C(=O)c3cccc(NCC(=O)N4CCC(CCCN5CCN(c6ccc(Nc7ncnc8c7ncn8[C@H]7C[C@@H](NC(=O)Cc8ccccc8)C7)cc6)CC5)CC4)c3C2=O)C(=O)N1 [Compound 253, N-((1s,3s)-3-(6-((4-(4-(3-(1-((2-(2,6-dioxopiperidin-3-yl)-1,3-dioxoisoindolin-4-yl)glycyl)piperidin-4-yl)propyl)piperazin-1-yl)phenyl)amino)-9H-purin-9-yl)cyclobutyl)-2-phenylacetamide]
50% | 30% | 20% | 50% | 20% | 0% | O=C1CCC(N2C(=O)c3cccc(OCC(=O)N4CCC(CCCN5CCN(c6ccc(Nc7ncnc8c7ncn8[C@H]7C[C@@H](NC(=O)Cc8ccccc8)C7)cc6)CC5)CC4)c3C2=O)C(=O)N1 (some centres unmarked) [Compound 254, N-((1s,3s)-3-(6-((4-(4-(3-(1-(2-((2-(2,6-dioxopiperidin-3-yl)-1,3-dioxoisoindolin-4-yl)oxy)acetyl)piperidin-4-yl)propyl)piperazin-1-yl)phenyl)amino)-9H-purin-9-yl)cyclobutyl)-2-phenylacetamide]
40% | 30% | 30% | 60% | 10% | 0% | O=C1CC[C@H](N2C(=O)c3ccc(OCC(=O)N4CCC(CCCN5CCN(c6ccc(Nc7ncnc8c7ncn8[C@H]7C[C@@H](NC(=O)Cc8ccccc8)C7)cc6)CC5)CC4)cc3C2=O)C(=O)N1 [Compound 256, N-((1s,3s)-3-(6-((4-(4-(3-(1-(2-((2-(2,6-dioxopiperidin-3-yl)-1,3-dioxoisoindolin-5-yl)oxy)acetyl)piperidin-4-yl)propyl)piperazin-1-yl)phenyl)amino)-9H-purin-9-yl)cyclobutyl)-2-phenylacetamide]
0/0/0% | 0/0/0% | 0/0/0% | 0/0/0% | 0/0/0% | 0/0/0% | O=C1CC[C@@H](c2cccc(OCC(=O)N3CCC(CCCN4CCN(c5ccc(Nc6ncnc7c6ncn7C6CC(NC(=O)Cc7ccccc7)C6)cc5)CC4)CC3)c2)C(=O)N1 (some centres unmarked) [Compound 259, N-((1s,3s)-3-(6-((4-(4-(3-(1-(2-(3-(2,6-dioxopiperidin-3-yl)phenoxy)acetyl)piperidin-4-yl)propyl)piperazin-1-yl)phenyl)amino)-9H-purin-9-yl)cyclobutyl)-2-phenylacetamide]
70% | 90% | 100% | 60% | 30% | 20% | O=C1CC[C@H](N2C(=O)c3cccc(N4CCC(CCCN5CCN(c6ccc(Nc7ncnc8c7ncn8[C@H]7C[C@@H](NC(=O)Cc8ccccc8)C7)cc6)CC5)CC4)c3C2=O)C(=O)N1 [Compound 261, N-((1s,3s)-3-(6-((4-(4-(3-(1-(2-(2,6-dioxopiperidin-3-yl)-1,3-dioxoisoindolin-4-yl)piperidin-4-yl)propyl)piperazin-1-yl)phenyl)amino)-9H-purin-9-yl)cyclobutyl)-2-phenylacetamide]
70% | 90% | 100% | 40% | 30% | 10% | O=C1CC[C@H](N2C(=O)c3ccc(N4CCC(CCCN5CCN(c6ccc(Nc7ncnc8c7ncn8C7CC(NC(=O)Cc8ccccc8)C7)cc6)CC5)CC4)cc3C2=O)C(=O)N1 (some centres unmarked) [Compound 262, N-((1s,3s)-3-(6-((4-(4-(3-(1-(2-(2,6-dioxopiperidin-3-yl)-1,3-dioxoisoindolin-5-yl)piperidin-4-yl)propyl)piperazin-1-yl)phenyl)amino)-9H-purin-9-yl)cyclobutyl)-2-phenylacetamide]
